Test [1] addresses GSK3β (Homo sapiens, UniProt P49841). Nature of the test: GSK3β ATP depletion assay. Format: biochemical. The following applies: read-out: GSK3b IC50. Here is the method: GSK3β ATP Depletion Assay
The activity of GSK3β is measured using a luciferase-luciferin based ATP detection reagent to quantify ATP depletion resulting from kinase-catalyzed phosphoryl transfer to a peptide substrate. Compounds to be tested are dissolved in 100% DMSO and directly distributed into white 384-well plates at 0.5 μl per well. To start the reaction, 10 μl of 10 nM GSK3B kinase and 20 μM biotinylated CREB peptide ([…](pS)YR-NH2) in assay buffer (50 mM TRIS pH 7.5, 15 mM MgCl2, 1 mM DTT, 0.1% BSA) is added into each well. After 15 minutes, 10 μl of 2 μM ATP in assay buffer is added. Final assay concentrations are 5 nM GSK3B, […], 10 μM b-CREB peptide and 2.5% DMSO. The reaction is performed until approximately 50% of the ATP is depleted, then stopped with the addition of 20 μl KinaseGlo (Promega Corporation) solution. The stopped reaction is incubated for 10 minutes and the remaining ATP is detected via luminescence on the Victor2 (Perkin Elmer).

For test [2], the target named is PIM2 (Homo sapiens, UniProt Q9P1W9). Kind of test: KinaseGlo Pim2 ATP depletion assay. Format: biochemical. How it is done: KinaseGlo Pim2 ATP Depletion Assay
Chain of PIM2 (Q9P1W9 whole entry): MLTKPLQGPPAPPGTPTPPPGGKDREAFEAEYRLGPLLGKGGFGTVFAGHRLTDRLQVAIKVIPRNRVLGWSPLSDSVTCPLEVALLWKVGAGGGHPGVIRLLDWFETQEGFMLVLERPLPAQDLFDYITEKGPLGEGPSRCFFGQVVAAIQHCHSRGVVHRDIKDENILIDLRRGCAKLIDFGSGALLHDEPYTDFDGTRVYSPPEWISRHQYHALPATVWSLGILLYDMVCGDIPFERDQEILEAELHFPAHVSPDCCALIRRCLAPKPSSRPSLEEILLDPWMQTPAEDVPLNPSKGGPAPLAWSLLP
The activity of PIM2 is measured using a luciferase-luciferin based ATP detection reagent to quantify ATP depletion resulting from kinase-catalyzed phosphoryl transfer to a peptide substrate. Compounds to be tested are dissolved in 100% DMSO and directly distributed into white 384-well plates at 0.5 piper well. To start the reaction, 10 μl of 10 nM Pim2 kinase and 20 μM BAD peptide (RSRHSSYPAGT-OH) in assay buffer (50 mM HEPES pH 7.5, 5 mM MgCl2, 1 mM DTT, 0.05% BSA) is added into each well. After 15 minutes, 10 μl of 8 μM ATP in assay buffer is added. Final assay concentrations are 5 nM PIM2, 4 μM ATP, 10 μM BAD peptide and 2.5% DMSO. The reaction is performed until approximately 50% of the ATP is depleted, then stopped with the addition of 20 μl KinaseGlo Plus (Promega Corporation) solution. The stopped reaction is incubated for 10 minutes and the remaining ATP detected via luminescence on the Victor2 (Perkin Elmer).

Test [3] concerns the target PIM1 (Homo sapiens, UniProt P11309). Nature of the test: KinaseGlo Pim1 ATP depletion assay. Type of test: biochemical. How it is done:
KinaseGlo Pim1 ATP Depletion Assay
The activity of PIM1 is measured using a luciferase-luciferin based ATP detection reagent to quantify ATP depletion resulting from kinase-catalyzed phosphoryl transfer to a peptide substrate. Compounds to be tested are dissolved in 100% DMSO and directly distributed into white 384-well plates at 0.5 μA per well. To start the reaction, 10 μA of 5 nM Pim1 kinase and 80 μM BAD peptide (RSRHSSYPAGT-OH) in assay buffer (50 mM HEPES pH 7.5, 5 mM MgCl2, 1 mM DTT, 0.05% BSA) is added into each well. After 15 minutes, 10 μl of 40 μM ATP in assay buffer is added. Final assay concentrations are 2.5 nM PIM1, 20 μM ATP, 40 μM BAD peptide and 2.5% DMSO. The reaction is performed until approximately 50% of the ATP is depleted, then stopped with the addition of 20 μA KinaseGlo Plus (Promega Corporation) solution. The stopped reaction is incubated for 10 minutes and the remaining ATP detected via luminescence on the Victor2 (Perkin Elmer). […] IC50, the half maximal inhibitory concentration, represents the concentration of a test compound that is required for 50% inhibition of its target in vitro.

In test [4] the test system is KMS11 (human myeloma cell line). Nature of the test: Cell proliferation assay (CellTiter-Glo), KMS11. The following applies: Homo sapiens, KMS-11; KMS11-Luc cells. Format: cell-based. Here is the method: KMS11 (human myeloma cell line), were cultured in IMDM supplemented with 10% FBS, sodium pyruvate and antibiotics. Cells were plated in the same medium at a density of 2000 cells per well into 96 well tissue culture plates, with outside wells vacant, on the day of assay. MMl.s (human myeloma cell line), were cultured in RPMI1640 supplemented with 10% FBS, sodium pyruvate and antibiotics. Cells were plated in the same medium at a density of 5000 cells per well into 96 well tissue culture plates, with outside wells vacant, on the day of assay.
Test compounds supplied in DMSO were diluted into DMSO at 500 times the desired final concentrations before dilution into culture media to 2 times final concentrations. Equal volumes of 2× compounds were added to the cells in 96 well plates and incubated at 37° C. for 3 days.
After 3 days plates were equilibrated to room temperature and equal volume of CellTiter-Glow Reagent (Promega) was added to the culture wells. The plates were agitated briefly and luminescent signal was measured with luminometer.
Using the procedures of Cell Proliferation Assay, the EC50 concentration of indicated compounds of the examples in were determined in KMS11 cells as shown in Table 4.

In test [5] the target is PIM3 (Homo sapiens, UniProt Q86V86). Nature of the test: KinaseGlo Pim3 ATP depletion assay. Type of test: biochemical. How it is done:
KinaseGlo Pim3 ATP Depletion Assay
The activity of PIM3 is measured using a luciferase-luciferin based ATP detection reagent to quantify ATP depletion resulting from kinase-catalyzed phosphoryl transfer to a peptide substrate. Compounds to be tested are dissolved in 100% DMSO and directly distributed into white 384-well plates at 0.5 μl per well. To start the reaction, 10 μl of 10 nM Pim3 kinase and 200 μM BAD peptide (RSRHSSYPAGT-OH) in assay buffer (50 mM HEPES pH 7.5, 5 mM MgCl2, 1 mM DTT, 0.05% BSA) is added into each well. After 15 minutes, 10 μl of 80 μM ATP in assay buffer is added. Final assay concentrations are 5 nM […], 40 μM ATP, 100 μM BAD peptide and 2.5% DMSO. The reaction is performed until approximately 50% of the ATP is depleted, then stopped by the addition of 20 μl KinaseGlo Plus (Promega Corporation) solution. The stopped reaction is incubated for 10 minutes and the remaining ATP detected via luminescence on the Victor2 (Perkin Elmer).

Chain of PIM1 (P11309 whole entry): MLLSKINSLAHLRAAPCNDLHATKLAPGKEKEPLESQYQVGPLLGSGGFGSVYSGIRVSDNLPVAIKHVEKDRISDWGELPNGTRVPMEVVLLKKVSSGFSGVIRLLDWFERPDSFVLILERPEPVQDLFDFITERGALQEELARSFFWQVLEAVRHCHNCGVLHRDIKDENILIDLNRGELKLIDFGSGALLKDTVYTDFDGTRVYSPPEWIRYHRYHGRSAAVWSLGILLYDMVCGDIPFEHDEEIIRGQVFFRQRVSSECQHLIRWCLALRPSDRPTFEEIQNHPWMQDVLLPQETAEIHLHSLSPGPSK
Chain of GSK3β (P49841 whole entry, species assumed): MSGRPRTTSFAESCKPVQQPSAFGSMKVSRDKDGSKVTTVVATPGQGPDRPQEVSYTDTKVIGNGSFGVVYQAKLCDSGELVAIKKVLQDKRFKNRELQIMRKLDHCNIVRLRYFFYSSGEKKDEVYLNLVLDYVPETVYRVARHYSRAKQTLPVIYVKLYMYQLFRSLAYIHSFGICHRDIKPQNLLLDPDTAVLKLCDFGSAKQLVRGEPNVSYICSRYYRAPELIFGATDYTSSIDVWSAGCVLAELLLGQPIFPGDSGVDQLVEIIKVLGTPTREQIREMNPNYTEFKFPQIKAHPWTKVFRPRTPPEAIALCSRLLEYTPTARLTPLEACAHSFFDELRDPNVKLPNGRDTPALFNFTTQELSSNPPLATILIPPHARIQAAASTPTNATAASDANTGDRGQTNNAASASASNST

With `CC1C(c2ccncc2NC(=O)c2ccc(F)c(-c3c(F)cccc3F)n2)OC(C)[C@H](O)C1O` (stereo in doubt) [Example 66, 6-(2,6-difluorophenyl)-N-(4-((2S,3R,4S,5R,6S)-4,5-dihydroxy-3,6-dimethyltetrahydro-2H-pyran-2-yl)pyridin-3-yl)-5-fluoropicolinamide], the IC50 in test [1] amounted to 689 nM; in test [2], 99 nM; in test [3], 1 nM; in test [5] it was 8 nM. In test [4], this molecule gave an EC50 of 2200 nM.

For `CC1C(c2ccncc2NC(=O)c2ccc(F)c(-c3c(F)cccc3F)n2)OC(C)[C@@H](O)C1O` (stereo in doubt) [Example 67, 6-(2,6-difluorophenyl)-N-(4-((2R,3S,4R,5S,6R)-4,5-dihydroxy-3,6-dimethyltetrahydro-2H-pyran-2-yl)pyridin-3-yl)-5-fluoropicolinamide], the IC50 turned out to be 984 nM in test [1], 300 nM in test [2], 4 nM in test [3] and 22 nM in test [5]. Further, the EC50 in test [4] is over 10000 nM.

With `C[C@H]1O[C@@H](c2ccncc2NC(=O)c2csc(-c3c(F)cccc3F)n2)[C@H](F)[C@@H](O)[C@]1(C)O` (stereo in doubt) [Example 68, 2-(2,6-difluorophenyl)-N-(4-((2S,3R,4S,5S,6R)-3-fluoro-4,5-dihydroxy-5,6-dimethyltetrahydro-2H-pyran-2-yl)pyridin-3-yl)thiazole-4-carboxamide], the IC50 in test [1] was found to be 1070 nM; in test [2] it was 3390 nM; in test [3] it was 6 nM; in test [5], 89 nM. For the same molecule, the EC50 in test [4] came to 6000 nM.

On to `C[C@H]1O[C@@H](c2ccncc2NC(=O)c2ccc(F)c(-c3c(F)cccc3F)n2)[C@H](F)[C@@H](O)[C@]1(C)O` (stereo in doubt) [Example 69, 6-(2,6-difluorophenyl)-5-fluoro-N-(4-((2S,3R,4S,5S,6R)-3-fluoro-4,5-dihydroxy-5,6-dimethyltetrahydro-2H-pyran-2-yl)pyridin-3-yl)picolinamide], for which the IC50 in test [1] was 1800 nM; in test [2], 497 nM; in test [3], 4 nM; in test [5], 53 nM. This molecule gave a concentration giving a half-maximal response (EC50) in test [4] of 4000 nM.

Consider `C[C@@H]1O[C@H](c2ccncc2NC(=O)c2csc(-c3c(F)cccc3F)n2)[C@@H](F)[C@H](O)[C@@]1(C)O` (stereo in doubt) [Example 70, 2-(2,6-difluorophenyl)-N-(4-((2R,3S,4R,5R,6S)-3-fluoro-4,5-dihydroxy-5,6-dimethyltetrahydro-2H-pyran-2-yl)pyridin-3-yl)thiazole-4-carboxamide], for which the half-maximal inhibitory concentration (IC50) in test [1] is 331 nM; in test [2], 323 nM; in test [3], 1 nM; in test [5], 19 nM. The concentration for a half-maximal effect (EC50) in test [4] is over 10000 nM.

On to `CC[C@]1(O)[C@H](O)C[C@H](c2ccncc2NC(=O)c2ccc(F)c(-c3c(F)cccc3F)n2)O[C@@H]1C` (stereo in doubt) [Example 77, 6-(2,6-difluorophenyl)-N-(4-((2R,4R,5S,6R)-5-ethyl-4,5-dihydroxy-6-methyltetrahydro-2H-pyran-2-yl)pyridin-3-yl)-5-fluoropicolinamide], for which the IC50 in test [1] came out at 4890 nM; in test [2], 756 nM; in test [3] it was 50 nM; in test [5] it was 236 nM. The molecule further yielded an EC50 in test [4] of 6400 nM.

In the case of `O=C(Nc1cnccc1[C@H]1C[C@@H](O)[C@H](O)[C@@H](CF)O1)c1ccc(F)c(-c2c(F)cccc2F)n1` [Example 282, 6-(2,6-difluorophenyl)-5-fluoro-N-(4-((2R,4R,5S,6S)-6-(fluoromethyl)-4,5-dihydroxytetrahydro-2H-pyran-2-yl)pyridin-3-yl)picolinamide], the IC50 was 187 nM in test [1], 10 nM in test [2], 1 nM in test [3] and 4 nM in test [5].

Source of the values: US20130109682A1, “CYCLIC ETHER COMPOUNDS USEFUL AS KINASE INHIBITORS” (NOVARTIS AG, priority 2010, published 2013).
